Target: Signal transducer and activator of transcription 3 (Homo sapiens, UniProt P40763)
Experiment: Inhibition of STAT3 in human HeLa cells by luciferase reporter assay

Sequence of Signal transducer and activator of transcription 3 (P40763 whole entry): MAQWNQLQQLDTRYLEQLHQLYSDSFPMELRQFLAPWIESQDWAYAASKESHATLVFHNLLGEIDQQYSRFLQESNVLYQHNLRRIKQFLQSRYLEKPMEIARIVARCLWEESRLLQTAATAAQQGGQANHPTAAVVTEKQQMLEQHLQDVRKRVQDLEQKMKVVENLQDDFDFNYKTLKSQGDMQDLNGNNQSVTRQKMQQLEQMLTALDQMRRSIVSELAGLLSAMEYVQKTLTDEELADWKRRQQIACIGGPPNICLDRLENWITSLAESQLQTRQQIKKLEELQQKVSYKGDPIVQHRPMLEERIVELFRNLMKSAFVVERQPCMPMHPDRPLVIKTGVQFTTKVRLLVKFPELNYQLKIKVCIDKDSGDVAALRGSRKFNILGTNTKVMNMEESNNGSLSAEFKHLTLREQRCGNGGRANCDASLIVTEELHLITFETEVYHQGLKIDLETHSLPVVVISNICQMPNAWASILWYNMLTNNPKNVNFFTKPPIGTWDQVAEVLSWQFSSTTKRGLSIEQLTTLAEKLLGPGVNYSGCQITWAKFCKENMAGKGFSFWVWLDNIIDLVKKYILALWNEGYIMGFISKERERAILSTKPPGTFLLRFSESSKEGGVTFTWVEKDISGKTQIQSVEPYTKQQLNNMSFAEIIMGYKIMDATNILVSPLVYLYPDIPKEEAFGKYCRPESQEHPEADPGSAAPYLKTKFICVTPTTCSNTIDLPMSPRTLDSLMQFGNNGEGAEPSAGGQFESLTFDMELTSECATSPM

EC50: 15 µM
Structure (SMILES): Cc1ccc(-c2sc(C(=O)NCc3cccs3)cc2S(=O)(=O)N2CCCC2)cc1 [4-(pyrrolidin-1-ylsulfonyl)-N-(thiophen-2-ylmethyl)-5-p-tolylthiophene-2-carboxamide]

— BindingDB's records for doi:10.1016/j.bmcl.2010.09.117 (University of London, 2010)
